Measurements: patent US10059655B2, “Lipids and lipid compositions for the delivery of active agents” (priority 2013, dated 2018)

Key:
[1] = test system: RSV F protein; assay: RSV immunogenicity: F-specific IgG titers after IM vaccination with liposome-formulated self-replicating RNA; format: in vivo; conditions: IM days 0 and 21, BALB/c mice, two weeks after two immunizations
[2] = Polydispersity index (PDI) by dynamic light scattering; format: physicochemical; conditions: for PDI 1st IM / PDI 2nd IM: RSV-F replicon RNA LNP, DLS; for PDI 1st IM: 1st immunization; for PDI 2nd IM: 2nd immunization
Procedure: Unless indicated otherwise, all PDIs referred to herein are the PDI of the fully formed nanoparticle, as measured by dynamic light scattering on a Malvern Zetasizer. The nanoparticle sample was diluted in phosphate buffered saline (PBS) so that the count rate was approximately 200-400 kcts. The data is presented in Table 3 as a weighted average of the intensity measure.
% entrapment (% E), Concentration of RNA (Conc), particle size measured by DLS, and polydispersity reported by DLS of LNPs prepared with different cationic lipids

[3] = Measurement of siRNA encapsulation (SYBR Gold fluorescence); format: physicochemical; conditions: for % Encap.: FVII siRNA; for % encapsulation siRNA FVII: FVII siRNA in LNP
Procedure: The lipid nanoparticles (LNPs) were formed by mixing equal volumes of lipids dissolved in alcohol with siRNA dissolved in a citrate buffer by an impinging jet process. The lipid solution contains a cationic lipid compound of the invention, a helper lipid (cholesterol), an optional neutral lipid (DSPC) and a stealth lipid (S010, S024, S027, or S031) at a concentration of 8-16 mg/mL with a target of 12 mg/mL in an alcohol. The siRNA to total lipid ratio is approximately 0.05 (wt/wt). Where a LNP formulation contains four lipid components, the molar ratios of the lipids ranges from 20 to 70 mole percent for the cationic lipid with a target of 40-60, the mole percent of helper lipid ranges from 20 to 70 with a target of 30 to 50, the mole percent of neutral lipid ranges from 0-30, the mole percent of PEG lipid has a range from 1 to 6 with a target of 2 to 5. The concentration of siRNA solution ranges from 0.7 to 1.0 mg/mL with a target of 0.8 to 0.9 mg/mL in a sodium citrate: sodium chloride buffer pH 4-6, with a target of 4.5-5.5. The LNPs are formed by mixing equal volumes of lipid solution in ethanol with siRNA dissolved in a citrate buffer by an impinging jet process through a mixing device with ID ranging from 0.25 to 2.0 mm at a flow rate from 10 to 640 mL/min. The mixed LNP solution is held at room temperature for 0-24 hrs prior to a dilution step. The solution is then concentrated and diafiltered with suitable buffer by ultrafiltration process using membranes with a MW cutoff from 30 to 500 KD. The final product is sterile filtered and stored at 4° C.
SYBR Gold flourescence reagent is used for the determination of siRNA encapsulation in the DLP's. DLP's with and without triton x-100 are used to determine the free siRNA and total siRNA amounts. DLP's samples with and without triton X-100 were excited at 485 nm and flourescence emission is measured at 530 nm. Encapsulation efficiency is calculated based on the following formula: Encapsulation efficiency: [(free siRNA concentration−total siRNA concentration)/(total siRNA concentration)]×100% Encapsulation Data

[4] = test system: plasma Factor VII enzyme activity; assay: Factor VII Activity Assay after IV dosing of formulated Factor VII siRNA in mice; format: in vivo, mouse; conditions: 0.03 mpk, CD-1 mice, about 48 hours after injection
Procedure: Female CD-1 mice were received from Harlan Labs and maintained on standard lab chow and water ad libitum. The animals weighed approximately 25 gr at time of dosing. Formulated Factor VII siRNA was administered as a single dose intravenously via the lateral tail vein. Approximately 48 hours after injection, the mice were euthanized by CO2 inhalation followed by exsanguination through the vena cava.
Plasma collected from injected mice was assayed for Factor VII enzyme activity using the Biophen FVII kit from Hyphen Biomedical (catalog number 221304). An assay standard curve was prepared using pooled plasma aliquots from the vehicle control animals. All samples were diluted to fall within the linear range of the standard curve and Factor VII activity relative to control plasma was reported.
Lipid nanoparticles comprising lipid compounds of formula (I) and the FVII siRNA duplex sequence listed above were tested in the Factor VII Activity Assay. The results of this assay are given in Table 3 4 below as a percent knock down of plasma Factor VII enzyme activity at a dose of 0.3 mg/kg and 0.03 mg/kg.

[5] = test system: hFIX; assay: Human Factor IX ELISA after IV injection of encapsulated hFIX mRNA; format: in vivo; conditions: 0.12 mpk, C57 mice, @ 24 h
Procedure: An sheep anti-human Factor IX antibody (Cat# FIX-EIA-C) from Enzyme Research Laboratories is coated on 384-well white microtiter plates overnight at a concentration of 5 ug/ml, then blocked for assay using KPL blocker (Cat#50-82-00). Then, plasma samples are diluted in a casein-based sample diluent and incubated on the plate with biological controls and a standard curve created from recombinant protein (Cat#HCIX-0040). The plate is then washed to remove unbound material. A biotinylated sheep anti-human Factor IX antibody (Cat# FIX-EIA-D) from Enzyme Research Laboratories is then added to the plate at 0.6 ug/ml to detect human Factor IX protein bound by the capture antibody. The plate is washed again and a streptavidin-conjugated horseradish peroxidase reagent (Cat#21140) diluted 1:1250, is incubated on the plate. A third wash step is performed and chemiluminescent reagents (Cat#1859678 & Cat#18596789) are combined and added to the plate and immediately read by a capable plate reader using all wavelengths and a 50 millisecond integration time. Unknown samples are interpolated off the human recombinant Factor IX standard curve.

SMILES | Immunogenicity (2wp2; log10 IgG titers) ([1]; 0.1 ng replicon RNA) | Immunogenicity (2wp2; log10 IgG titers) ([1]; 1 ng replicon RNA) | PDI ([2]; FLuc mRNA) | PDI ([2]; FVII siRNA) | PDI ([2]; Gluc mRNA) | PDI 1st IM [2] | PDI 2nd IM [2] | PDI ([2]; hFIX mRNA) | PDI ([2]; hLep plasmid) | PDI ([2]; hLeptin mRNA) | PDI ([2]; mEPO mRNA) | PDI ([2]; pDNA) | % Encap. [3] | % encapsulation siRNA FVII [3] | FVII knock-down (%) following IV injection of encapsulated siRNA [4] | Expression of protein following IV injection of encapsulated mRNA: hFIX [5]
CCCCC/C=C\C/C=C\CCCCCCCC(=O)OCC(COC(=O)CCCCCCC/C=C\C/C=C\CCCCC)COC(=O)C1(C)CCN(C)C1 (stereo not drawn) [Example 1, (9Z,9′Z,12Z,12′Z)-2-(((1,3-dimethylpyrrolidine-3-carbonyl)oxy)methyl)propane-1,3-diyl bis(octadeca-9,12-dienoate)] | 3.99 log10 IgG titers | 4.08 log10 IgG titers | 0.152 | 0.049 | 0.136 | 0.122 | 0.11 | 0.090 | 0.182 | 0.105 | 0.145 | 0.100 | 85.1% | 85.1% | 69%/0.03 mpk | 147.7 ng/mL
CCCCC/C=C\C/C=C\CCCCCCCC(=O)OCC(COC(=O)CCC(OCCCCCCCC)OCCCCCCCC)COC(=O)OCCCN(CC)CC (stereo not drawn) [Example 13, (9Z,12Z)-3-((4,4-bis(octyloxy)butanoyl)oxy)-2-((((3-(diethylamino)propoxy)carbonyl)oxy)methyl)propyl octadeca-9,12-dienoate] | – | – | 0.140 | 0.037 | 0.099 | – | – | 0.154 | 0.158 | 0.093 | 0.129 | 0.160 | 88.1% | 88.1% | 97%/0.03 mpk | 292.7 ng/mL
CCCCC/C=C\C/C=C\CCCCCCCC(=O)OCC(COC(=O)CCC(OCCCCCCCC)OCCCCCCCC)COC(=O)OCC1CCCN(CC)C1 (stereo not drawn) [Example 15, (9Z,12Z)-3-((4,4-bis(octyloxy)butanoyl)oxy)-2-(((((1-ethylpiperidin-3-yl)methoxy)carbonyl)oxy)methyl)propyl octadeca-9,12-dienoate] | 4.45 log10 IgG titers | 4.63 log10 IgG titers | 0.132 | – | 0.133 | 0.121 | 0.097 | 0.182 | 0.149 | 0.125 | 0.125 | 0.110 | – | – | – | –
